This is an account of results in patent US7534814B2, “Mutilin derivatives and their use as antibacterials” (Nabriva Therapeutics AG, priority 1999, dated 2009).

Converted amounts (≈) assume the structure as drawn. Where two headings read alike, the source gives them in different places.

Holding throughout (assay type): cell-based
The test system of assay [1] is Staphylococcus aureus MRSA. Nature of the assay: MIC in Agar Dilution Test or Micro Dilution Test (NCCLS M7-A4). From the text: (§1) For example, the active compounds of the present invention show antimicrobial, e.g. antibacterial activity against gram negative bacterias, such as Escherichia coli; and against gram positive bacteria, such as Staphylococcus aureus, Streptococcus pyogenes, Streptococcus pneumonlae, Mycoplasms, Chlamydia and obligatory anaerobes, e.g. Bacteroides fragilis; in vitro in the Agar Dilution Test or Microdilution Test according to National Commitee for Clinical Laboratory Standards (NCCLS) 1997, Document M7-A4 Vol.17, No. 2: “Methods for dilution Antimicrobial Susceptibility Tests for Bacteria that Grow Aerobically—Fourth Edition, Approved Standard”; and e.g. in vivo in systemic infections in mice.
(§2) The active compounds of the invention show an surprising overall activity spectrum. For example, it has been determined that the active compounds of the present invention show surprising activity in vitro against Enterococcus faecium, including vancomycin-resistant strains; against Staphylococcus aureus including methicillin sensitive (MSSA) and methicdllin-resistant (MRSA) strains; and against Streptococcus pneumoniae including penicillin-resistant strains; e.g. in the Agar Dilution Test or in the Micro Dilution Test in Mueller-Hinton agar or Mueller-Hinton broth with or without supplements according to the approved standard reference methods of the National Committee for Clinical Laboratory Standards (NCCLS), Document M7-A4 for aerobic bacteria.
In general terms: In agar dilution, organisms are placed on agar that contains the substance at set levels.

The subject of assay [2] is Staphylococcus aureus MSSA. The description is as above. Particulars: examples tested in the form of a hydrochloride.
Text: as §1, §2

Assay [3] relates to penicillin-resistant Streptococcus pneumoniae. The description is as above.
Text: as §1, §2

In assay [4] the test system is Enterococcus faecalis strain ATCC 29212. Nature of the assay: MIC in Agar Dilution Test or Microdilution Test. Particulars: examples tested in the form of an hydrochloride.
Text: as §1

By MIC is commonly meant the lowest concentration found to suppress growth. Take `C=C[C@]1(C)C[C@@H](OC(=O)CSc2cccc(NC(=O)[C@H]3CCCCN3)c2)[C@]2(C)[C@H](C)CC[C@]3(CCC(=O)[C@H]32)[C@@H](C)[C@@H]1O` [Example 1]: the minimum inhibitory concentration (MIC) was at most 0.0125 µg/mL in assay [1] and “ca. 0.025 μg/ml” in assay [2]. In the case of `C=C[C@]1(C)C[C@@H](OC(=O)CSc2cccc(N)c2)[C@]2(C)[C@H](C)CC[C@]3(CCC(=O)[C@H]32)[C@@H](C)[C@@H]1O` [Example 52, 14-O-[(3-Amino-phenylsulfanyl)acetyl]mutilin], the MIC result in assay [2] was “ca. 0.025 μg/ml”. With `CC[C@H]1OC(=O)[C@H](C)[C@@H](O[C@H]2C[C@@](C)(OC)[C@@H](O)[C@H](C)O2)[C@H](C)[C@@H](O[C@@H]2O[C@H](C)C[C@H](N(C)C)[C@H]2O)[C@](C)(O)C[C@@H](C)CN(C)[C@H](C)[C@@H](O)[C@]1(C)O` [azithromycin], the MIC is over 25.6 µg/mL in assay [1] (read-out: MIC), about 1.6 µg/mL (≈ 2.14 µM) in assay [2] (read-out: MIC) and over 2.56 µg/mL in assay [3]. Turning to `CC[C@H]1OC(=O)[C@H](C)[C@@H](O[C@H]2C[C@@](C)(OC)[C@@H](O)[C@H](C)O2)[C@H](C)[C@@H](O[C@@H]2O[C@H](C)C[C@H](N(C)C)[C@H]2O)[C@](C)(O)C[C@@H](C)C(=O)[C@H](C)[C@@H](O)[C@]1(C)O` [erythromycin A], the MIC entry in assay [4] is on record as “ca. 1.6 μg/ml”.
